From PMC6017844, “4-Thiazolidinone Derivatives as MMP Inhibitors in Tissue Damage: Synthesis, Biological Evaluation and Docking Studies” (Molecules : A Journal of Synthetic Chemistry and Natural …, 2018)

Assays:
[1] = Oxygen Radical Absorbance Capacity (ORAC) assay; conditions: fluorescein 10 nM, AAPH 100 mM, 37 °C, pH 7.0; mean ± SD (n = 3); Trolox = 1 ORAC Units
Source text: Free radicals and ROS are highly reactive molecules that are generated by normal cellular processes. They react with cellular components, damaging DNA, carbohydrates, proteins, and lipids causing cellular and tissue injury. Although organisms have developed complex antioxidant systems to protect themselves from oxidative substances, an excess of ROS production can lead to inflammation and several disease state. ORAC test measures both lipophilic and hydrophilic antioxidant capacity and determines the ability of antioxidants to protect proteins from damage caused by free radicals. ORAC assay has been widely accepted as a standard in vitro to measure the antioxidant activity of synthetic compounds, measuring their capacity to transfer hydrogen atom. The assay measures the loss of fluorescence over time due to peroxyl-radical formation by the breakdown of 2,2′-azobis-2-methyl-propanimidamide dihydrochloride (AAPH). 6-Hydroxy-2,5,7,8-tetramethylchroman-2-carboxylic acid (Trolox), a water soluble vitamin E analog, is a positive control that inhibits the fluorescein decay in a dose dependent manner. The ORAC assay is a kinetic assay measuring fluorescein decay and antioxidant protection over time.
The ORAC assay was performed as previously reported by Cao et al.. The measurements were carried out on a Wallac 1420 Victor^3 96-well plate reader (EG & Wallac, Turku, Finland) with fluorescence filter ([…]). Fluorescein (10 nM) was the fluorescence probe and target molecule for free radical attack from AAPH (100 mM) as peroxyl radical generator. The reaction was conducted at 37 °C at pH 7.0 with Trolox (12.5 μM) as control standard and phosphate buffer as blank. Compounds 13–19 and 22–23 were appropriately diluted with DMSO/buffer (1:10) prior to analysis. The fluorescein fluorescence was recorded every 2 min after addition of AAPH. All measurements were expressed relative to the initial reading. One blank, one standard, and a maximum of 10 samples were analyzed at the same time. Each measure was repeated at least three times. The ORAC value refers to the net protection area under the quenching curve of fluorescein in the presence of an antioxidant. The final results (ORAC value) were calculated and expressed using Trolox equivalents (TE) per gram of extract (TE/g):ORAC value (μM) = K(S sample − S blank)/(S Trolox − S blank)(1) where K is a sample dilution factor, S is the area under the fluorescence decay curve of the sample, Trolox or blank. This area was calculated with Origin®7 (OriginLab Corporation, Northampton, MA, USA).

human recombinant MMP-9 = target: T1, human recombinant MMP-9 (Homo sapiens, UniProt P14780); experiment: MMP-9 fluorimetric assay; assay type: biochemical; conditions: catalytic domain of MMP-9 10 nM, substrate 350 nM, 25 °C, pH 7; mean ± SD (n = 3); n.a. = not active; read-out: IC50 Value
T1 construct: using 10 nM of proteolytic enzyme (catalytic domains of MMP-9 (Biomol, Inc.)); purchased Biomol, Inc
Experimental: The synthesized compounds 13–19, 22 and 23 were tested for their in vitro ability to inhibit human recombinant MMP-9. Table 2 reports the results of this inhibition assay, expressed as IC50 (µM). […] We used as positive control a potent MMPs inhibitor, NNGH (N-isobutyl-N-(4-methoxy-phenylsulfonyl)glycylhydroxamic acid).
The compounds were evaluated for their ability to inhibit the hydrolysis of fluorescence-quenched peptide substrate Mca-Pro-Leu-Gly-Leu-Dpa-Ala-Arg-NH2 (Biomol, Inc., Enzo Life Sciences, Inc., Farmingdale, NY, USA). The MMP-9 assays were performed in 50 mM HEPES buffer containing 5 mM CaCl2, 0.1 mM ZnCl2, 0.05% Brij-35, at pH 7, using 10 nM of proteolytic enzyme (catalytic domains of MMP-9 (Biomol, Inc.) and 350 nM of peptide substrate. The enzyme was incubated at 25 °C with increasing concentration (0.0004, 0.004, 0.04, 0.4, 4, 40, 400 µM) of compounds, and the fluorescence (excitation max 328 nm; emission max 393 nm) was measured for 3 min after the addition of the substrate using a Victor Wallac 1420 Multilabel Counters fluorimeter (Perkin Elmer, Waltham, MA, USA). The fluorescence values of the samples were plotted against the time with a linear regression fit, using the Origin software, version 7 (Origin Lab Corporation, Northampton, MA, USA). The slope of the line value for each inhibitor concentrations was obtained where an increase of the slope corresponds to a decrease of inhibitory activity. Subsequently, the IC50 values were obtained from a non-linear regression procedure (log inhibitor vs. response) with a variables slope of the regression line (Y) and the molar inhibitor concentration (X), using the software Origin®7 (Origin Lab Corporation). The IC50 value was obtained from the equation Y = P1/(1 + X/P2). NNGH (N-Isobutyl-N-(4-methoxyphenylsulfonyl)glycylhydroxamic acid) a potent MMPs inhibitor was used as a positive control.

T1 sequence (P14780 107-444 limits assumed): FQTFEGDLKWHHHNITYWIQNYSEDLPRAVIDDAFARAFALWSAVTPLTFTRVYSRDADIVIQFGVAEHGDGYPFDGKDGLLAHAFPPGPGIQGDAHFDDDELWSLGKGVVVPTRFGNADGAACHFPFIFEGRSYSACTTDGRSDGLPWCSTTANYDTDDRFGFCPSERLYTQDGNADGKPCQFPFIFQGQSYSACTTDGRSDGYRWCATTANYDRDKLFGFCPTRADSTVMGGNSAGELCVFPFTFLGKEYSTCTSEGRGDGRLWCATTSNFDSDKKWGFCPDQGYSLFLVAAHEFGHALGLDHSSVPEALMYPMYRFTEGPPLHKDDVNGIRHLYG

Row | SMILES | IC50 (human recombinant MMP-9) [µM] | melting point [°C] | ORAC UNITs [1]
1 | CC(C(=O)NN1C(=O)CSC1c1ccc(C(F)(F)F)cc1)c1nsc2ccccc12 (centres unmarked) [Compound 17, 2-(1,2-Benzothiazol-3-yl)-N-{4-oxo-2-[4-(trifluoromethyl)phenyl]-1,3-thiazolidin-3-yl}propanamide] | – | – | 0.27 ± 0.06 ORAC unit (μmol of Trolox equi
2 | COc1ccc(C2SCC(=O)N2NC(=O)C(C)c2nsc3ccccc23)cc1 (centres unmarked) (hydrate or solvate) [Compound 15, 2-(1,2-Benzothiazol-3-yl)-N-[2-(4-methoxyphenyl)-4-oxo-1,3-thiazolidin-3-yl]propanamide] | – | 170 | –
3 | CC(C(=O)NN1C(=O)CSC1c1ccc(F)cc1)c1nsc2ccccc12 (centres unmarked) (hydrate or solvate) [Compound 16, 2-(1,2-Benzothiazol-3-yl)-N-[2-(4-fluorophenyl)-4-oxo-1,3-thiazolidin-3-yl]propanamide] | – | 185 to 186 | –
4 | CC(C(=O)NN1C(=O)CSC1c1ccc(F)cc1)c1nsc2ccccc12 (centres unmarked) [Compound 16, 2-(1,2-Benzothiazol-3-yl)-N-[2-(4-fluorophenyl)-4-oxo-1,3-thiazolidin-3-yl]propanamide] | 17.2 ± 1.92 | – | 0.46 ± 0.20 ORAC unit (μmol of Trolox equi
5 | Cc1ccc(C2SCC(=O)N2NC(=O)C(C)c2nsc3ccccc23)cc1 (centres unmarked) [Compound 14, 2-(1,2-Benzothiazol-3-yl)-N-[2-(4-methylphenyl)-4-oxo-1,3-thiazolidin-3-yl]propanamide] | 9.01 ± 0.45 | – | 0.40 ± 0.06 ORAC unit (μmol of Trolox equi
6 | COc1ccc(C2SCC(=O)N2NC(=O)C(C)c2nsc3ccccc23)cc1 (centres unmarked) [Compound 15, 2-(1,2-Benzothiazol-3-yl)-N-[2-(4-methoxyphenyl)-4-oxo-1,3-thiazolidin-3-yl]propanamide] | 6.82 ± 0.95 | – | 0.66 ± 0.12 ORAC unit (μmol of Trolox equi
7 | CC(C(=O)NN1C(=O)CSC1c1ccccc1)c1nsc2ccccc12 (centres unmarked) (hydrate or solvate) [Compound 13, 2-(1,2-Benzothiazol-3-yl)-N-(4-oxo-2-phenyl-1,3-thiazolidin-3-yl)propanamide] | – | 239 to 240 | –
8 | CC(C(=O)NN1C(=O)CSC1c1ccccc1)c1nsc2ccccc12 (centres unmarked) [Compound 13, 2-(1,2-Benzothiazol-3-yl)-N-(4-oxo-2-phenyl-1,3-thiazolidin-3-yl)propanamide] | 7.99 ± 0.65 | – | 0.61 ± 0.14 ORAC unit (μmol of Trolox equi
9 | COc1ccc(S(=O)(=O)N(CC(=O)NO)CC(C)C)cc1 [NNGH, N-isobutyl-N-(4-methoxy-phenylsulfonyl)glycylhydroxamic acid, reference compound] | 0.0065 ± 0.00025 | – | –

Continued, in another order:

Row | IC50 (human recombinant MMP-9) [µM] | melting point [°C] | SMILES | ORAC UNITs [1]
10 | 22.1 ± 1.42 | – | CC(C(=O)NN1C(=O)CSC1c1ccc([N+](=O)[O-])cc1)c1nsc2ccccc12 (centres unmarked) [Compound 19, 2-(1,2-Benzothiazol-3-yl)-N-[2-(4-nitrophenyl)-4-oxo-1,3-thiazolidin-3-yl]propanamide] | 0.40 ± 0.17 ORAC unit (μmol of Trolox equi
11 | – | 208 to 209 | CC(C(=O)NN1C(=O)CSC1c1ccc([N+](=O)[O-])cc1)c1nsc2ccccc12 (centres unmarked) (hydrate or solvate) [Compound 19, 2-(1,2-Benzothiazol-3-yl)-N-[2-(4-nitrophenyl)-4-oxo-1,3-thiazolidin-3-yl]propanamide] | –
12 | – | 145 to 147 | CC(C(=O)NN1C(=O)CSC1c1ccc(C(F)(F)F)cc1)c1nsc2ccccc12 (centres unmarked) (hydrate or solvate) [Compound 17, 2-(1,2-Benzothiazol-3-yl)-N-{4-oxo-2-[4-(trifluoromethyl)phenyl]-1,3-thiazolidin-3-yl}propanamide] | –
13 | – | 187 to 188 | CC(C(=O)NN1C(=O)CSC1c1ccc(Cl)cc1)c1nsc2ccccc12 (centres unmarked) (hydrate or solvate) [Compound 18, 2-(1,2-Benzothiazol-3-yl)-N-[2-(4-chlorophenyl)-4-oxo-1,3-thiazolidin-3-yl]propanamide] | –
14 | 16.1 ± 1.23 | – | CC(C(=O)NN1C(=O)CSC1c1ccc(Cl)cc1)c1nsc2ccccc12 (centres unmarked) [Compound 18, 2-(1,2-Benzothiazol-3-yl)-N-[2-(4-chlorophenyl)-4-oxo-1,3-thiazolidin-3-yl]propanamide] | 0.47 ± 0.23 ORAC unit (μmol of Trolox equi
